{
  "source": "ChEMBL document CHEMBL5352414",
  "about": "(Eur J Med Chem, 2022)",
  "key": {"[1]": {"target": "T1, Voltage-dependent T-type calcium channel subunit alpha-1H (Homo sapiens, UniProt O95180)", "assay": "Inhibition of human Cav3.2 T-type Ca2+ channel expressed in HEK293 cells assessed as reduction in T-currents at 0.3 uM at -80 mV holding potential by whole cell patch-clamp assay", "format": "cell-based"}, "[2]": {"target": "D(2) dopamine receptor (Rattus norvegicus) (UniProt P61169)", "sequence (P61169 whole entry)": "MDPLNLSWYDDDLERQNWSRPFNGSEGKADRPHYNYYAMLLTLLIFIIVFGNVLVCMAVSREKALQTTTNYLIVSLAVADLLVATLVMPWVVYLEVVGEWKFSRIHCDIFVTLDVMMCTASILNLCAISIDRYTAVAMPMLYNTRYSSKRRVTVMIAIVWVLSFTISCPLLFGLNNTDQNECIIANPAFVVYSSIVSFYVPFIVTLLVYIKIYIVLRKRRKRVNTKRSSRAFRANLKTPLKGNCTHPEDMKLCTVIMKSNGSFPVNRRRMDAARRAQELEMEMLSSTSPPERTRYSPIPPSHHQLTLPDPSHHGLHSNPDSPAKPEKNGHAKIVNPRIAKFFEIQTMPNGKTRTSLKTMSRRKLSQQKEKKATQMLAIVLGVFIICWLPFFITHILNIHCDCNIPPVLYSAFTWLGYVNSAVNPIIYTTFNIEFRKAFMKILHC", "assay": "Displacement of [3H]-spiperone from dopamine D2 receptor in rat brain striatum membrane homogenates at 1 uM incubated for 90 mins", "format": "cell membranes"}, "[3]": {"target": "T1, Voltage-dependent T-type calcium channel subunit alpha-1H", "assay": "Inhibition of human Cav3.2 T-type Ca2+ channel expressed in HEK293 cells assessed as effect on T-currents in response to -20 mV test pulse at -80 mV holding potential by whole cell patch-clamp assay", "format": "cell-based"}, "[4]": {"target": "T1, Voltage-dependent T-type calcium channel subunit alpha-1H", "assay": "Inhibition of human Cav3.2 T-type Ca2+ channel expressed in HEK293 cells assessed as effect on T-currents in response to -20 mV test pulse at -110 mV holding potential by whole cell patch-clamp assay", "format": "cell-based"}, "[5]": {"target": "Voltage-dependent T-type calcium channel subunit alpha-1G (Homo sapiens, UniProt O43497)", "sequence (O43497 whole entry)": "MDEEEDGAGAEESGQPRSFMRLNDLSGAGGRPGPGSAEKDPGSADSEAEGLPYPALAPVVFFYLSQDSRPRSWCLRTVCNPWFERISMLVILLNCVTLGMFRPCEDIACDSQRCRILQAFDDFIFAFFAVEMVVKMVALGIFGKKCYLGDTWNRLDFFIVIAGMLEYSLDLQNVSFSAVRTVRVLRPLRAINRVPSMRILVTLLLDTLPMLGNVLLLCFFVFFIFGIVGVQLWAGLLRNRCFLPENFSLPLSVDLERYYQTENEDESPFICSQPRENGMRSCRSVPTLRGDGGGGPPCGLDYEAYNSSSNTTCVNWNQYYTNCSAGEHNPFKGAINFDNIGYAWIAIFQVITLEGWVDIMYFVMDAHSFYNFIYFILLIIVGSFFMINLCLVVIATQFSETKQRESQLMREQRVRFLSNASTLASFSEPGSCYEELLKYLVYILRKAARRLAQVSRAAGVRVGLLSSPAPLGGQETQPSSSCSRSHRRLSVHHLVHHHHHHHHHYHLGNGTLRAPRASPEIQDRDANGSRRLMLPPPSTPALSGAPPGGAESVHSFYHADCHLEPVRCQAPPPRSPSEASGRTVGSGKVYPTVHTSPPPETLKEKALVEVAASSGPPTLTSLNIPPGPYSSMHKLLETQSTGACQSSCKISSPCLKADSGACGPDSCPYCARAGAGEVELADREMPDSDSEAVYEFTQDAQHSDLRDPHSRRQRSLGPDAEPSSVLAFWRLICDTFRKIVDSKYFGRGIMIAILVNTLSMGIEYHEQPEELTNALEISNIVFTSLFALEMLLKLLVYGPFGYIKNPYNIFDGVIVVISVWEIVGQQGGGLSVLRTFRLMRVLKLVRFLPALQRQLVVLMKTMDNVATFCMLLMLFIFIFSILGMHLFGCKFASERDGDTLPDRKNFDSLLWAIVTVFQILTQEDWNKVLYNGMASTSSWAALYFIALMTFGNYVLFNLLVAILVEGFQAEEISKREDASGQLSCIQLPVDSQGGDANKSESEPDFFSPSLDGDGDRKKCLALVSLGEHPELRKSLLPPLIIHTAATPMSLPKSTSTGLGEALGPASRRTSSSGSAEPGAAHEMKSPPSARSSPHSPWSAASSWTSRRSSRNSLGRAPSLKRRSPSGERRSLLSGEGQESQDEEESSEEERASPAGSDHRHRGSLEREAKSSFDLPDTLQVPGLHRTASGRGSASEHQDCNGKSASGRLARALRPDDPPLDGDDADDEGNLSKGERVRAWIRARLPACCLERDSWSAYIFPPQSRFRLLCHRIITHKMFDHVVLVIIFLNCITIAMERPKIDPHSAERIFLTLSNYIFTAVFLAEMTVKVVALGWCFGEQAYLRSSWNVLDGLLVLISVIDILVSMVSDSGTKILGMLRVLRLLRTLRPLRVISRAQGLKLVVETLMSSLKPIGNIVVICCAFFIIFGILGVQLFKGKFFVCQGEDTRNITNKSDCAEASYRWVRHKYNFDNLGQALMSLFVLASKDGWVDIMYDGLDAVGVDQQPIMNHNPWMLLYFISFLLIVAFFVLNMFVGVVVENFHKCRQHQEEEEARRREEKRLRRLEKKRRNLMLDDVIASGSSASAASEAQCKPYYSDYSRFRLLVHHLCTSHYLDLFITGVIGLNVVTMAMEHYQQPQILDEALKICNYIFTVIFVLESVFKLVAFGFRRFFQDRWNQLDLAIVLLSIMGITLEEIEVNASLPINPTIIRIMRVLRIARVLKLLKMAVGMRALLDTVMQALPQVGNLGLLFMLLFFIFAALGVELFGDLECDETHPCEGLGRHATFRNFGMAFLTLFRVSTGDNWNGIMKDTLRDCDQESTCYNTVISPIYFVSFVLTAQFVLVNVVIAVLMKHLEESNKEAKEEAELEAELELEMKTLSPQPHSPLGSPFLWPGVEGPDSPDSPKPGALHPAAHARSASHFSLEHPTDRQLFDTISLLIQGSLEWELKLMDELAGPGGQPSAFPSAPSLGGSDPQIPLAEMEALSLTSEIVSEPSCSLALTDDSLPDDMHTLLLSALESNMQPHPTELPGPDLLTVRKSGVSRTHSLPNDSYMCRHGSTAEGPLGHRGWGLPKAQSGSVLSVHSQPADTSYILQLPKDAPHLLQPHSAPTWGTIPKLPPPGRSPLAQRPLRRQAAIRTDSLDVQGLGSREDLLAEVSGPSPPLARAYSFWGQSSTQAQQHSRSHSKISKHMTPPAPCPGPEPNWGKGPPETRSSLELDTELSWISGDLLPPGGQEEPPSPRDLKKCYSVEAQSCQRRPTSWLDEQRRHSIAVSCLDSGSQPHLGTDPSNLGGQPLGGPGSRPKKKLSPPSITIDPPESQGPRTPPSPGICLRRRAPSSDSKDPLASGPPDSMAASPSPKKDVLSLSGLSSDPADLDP", "assay": "Inhibition of human Cav3.1 T-type Ca2+ channel expressed in HEK293 cells assessed as effect on T-currents in response to -20 mV test pulse at -80 mV holding potential by whole cell patch-clamp assay", "format": "cell-based"}, "[6]": {"assay": "Half life in mouse at 10 mg/kg, ip measured for 24 hrs by LC-MS/MS analysis", "format": "ADME, organism-based", "conditions": "in vivo"}, "[7]": {"target": "5-hydroxytryptamine receptor 2A (Rattus norvegicus) (UniProt P14842)", "sequence (P14842 whole entry)": "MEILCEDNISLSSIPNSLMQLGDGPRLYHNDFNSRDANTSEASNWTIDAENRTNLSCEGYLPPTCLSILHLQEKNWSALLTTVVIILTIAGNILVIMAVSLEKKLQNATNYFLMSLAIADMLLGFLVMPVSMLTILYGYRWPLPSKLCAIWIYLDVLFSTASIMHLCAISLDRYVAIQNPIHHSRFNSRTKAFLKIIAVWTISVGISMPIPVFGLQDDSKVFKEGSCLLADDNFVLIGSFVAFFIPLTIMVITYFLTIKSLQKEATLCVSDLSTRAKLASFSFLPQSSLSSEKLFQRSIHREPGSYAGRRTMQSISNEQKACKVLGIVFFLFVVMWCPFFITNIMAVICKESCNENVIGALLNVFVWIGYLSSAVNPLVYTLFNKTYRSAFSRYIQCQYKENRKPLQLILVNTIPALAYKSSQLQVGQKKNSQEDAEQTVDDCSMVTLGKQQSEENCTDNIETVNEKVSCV", "assay": "Antagonist activity at 5-HT2A receptor in Wistar rat jugular vein assessed as vasorelaxation of serotonin-induced contraction at 10 uM preincubated for 10 mins followed by serotonin stimulation", "format": "functional, tissue-based"}, "[8]": {"assay": "Toxicity in mouse assessed as catelepsy at 8 nmol per mouse, icv measured for 180 mins by bar test", "conditions": "in vivo, icv_or_intrathecal, 3 h"}, "[9]": {"assay": "Toxicity in mouse assessed as catelepsy at 10 mg/kg, ip measured for 300 mins by bar test", "format": "organism-based", "conditions": "in vivo, 5 h"}, "[10]": {"assay": "Toxicity in mouse assessed as impairment of neuromuscular coordination by measuring shortened latency to fall at 10 mg/kg, ip measured after 60 to 90 mins by rota-rod test", "format": "organism-based", "conditions": "in vivo, time 60-90 min"}, "[11]": {"target": "D(2) dopamine receptor (Rattus norvegicus) (UniProt P61169)", "assay": "Displacement of [3H]-spiperone from dopamine D2 receptor in rat brain striatum membrane homogenates at 10 uM incubated for 90 mins", "format": "cell membranes"}, "[12]": {"target": "5-hydroxytryptamine receptor 2A (Rattus norvegicus) (UniProt P14842)", "assay": "Antagonist activity at 5-HT2A receptor in Wistar rat jugular vein assessed as vasorelaxation of serotonin-induced contraction at 100 uM preincubated for 10 mins followed by serotonin stimulation", "format": "functional, tissue-based", "conditions": "filed as antagonist"}, "[13]": {"assay": "Antagonist activity at 5-HT1 receptor (unknown origin)", "design": "species or system Homo sapiens"}, "Mus musculus [14]": {"test_system": "Mus musculus", "assay": "Antinociceptive activity in Na2S induced colonic pain mouse model at 0.03 to 0.5 mg/kg, ip pretreated for 30 mins followed by intra-colonic administration of Na2S and measured for 30 mins by von frey test", "format": "functional, organism-based", "conditions": "dose 0.03-0.5 mg/kg, time 60.0 min"}, "Mus musculus [15]": {"test_system": "Mus musculus", "assay": "Antinociceptive activity in Na2S induced referred hyperalgesia mouse model at 0.03 to 0.5 mg/kg, ip pretreated for 30 mins followed by intracolonic administration of Na2S and measured for 30 mins by von frey test", "format": "functional, organism-based", "conditions": "dose 0.03-0.5 mg/kg, time 60.0 min"}, "[16]": {"assay": "Toxicity in mouse assessed as catelepsy at 0.3 to 1 mg/kg, ip measured for 300 mins by bar test", "format": "organism-based", "conditions": "in vivo, 5 h, dose 0.3-1 mg/kg"}, "[17]": {"assay": "Toxicity in mouse assessed as impairment of neuromuscular coordination by measuring shortened latency to fall at 1 mg/kg, ip measured after 60 to 90 mins by rota-rod test", "format": "organism-based", "conditions": "in vivo, time 60-90 min"}},
  "note": "pIC50: −log10 of the molar value. Activity calls are given as the source filed them. The calls are words filed in the database; no cut-off is given here.",
  "data": [
    {"smiles": "O=c1n(CCCCc2cccc(F)c2)c2ccccc2n1C1CCN(CCCCc2cccc(F)c2)CC1", "values": [
      {"measurement": "inhibition", "setting": "[1]", "value": "Active"},
      {"measurement": "Activity", "setting": "[2]", "value": "inactive"},
      {"measurement": "pIC50", "setting": "[3]", "value": 7.03},
      {"measurement": "pIC50", "setting": "[4]", "value": 5.96},
      {"measurement": "pIC50", "setting": "[5]", "value": 6.66},
      {"measurement": "half-life", "setting": "[6]", "value": 2.42, "unit": "h"},
      {"measurement": "Activity", "setting": "[7]", "value": "inactive"},
      {"measurement": "Activity", "setting": "[8]", "value": "Non-Toxic"},
      {"measurement": "Activity", "setting": "[9]", "value": "Non-Toxic"},
      {"measurement": "Activity", "setting": "[10]", "value": "Non-Toxic"}
    ]},
    {"smiles": "O=C(CCCc1ccccc1)N1CCC(n2c(=O)n(CCCCc3ccccc3)c3ccccc32)CC1", "values": [
      {"measurement": "inhibition", "setting": "[1]", "value": "Active"},
      {"measurement": "Activity", "setting": "[2]", "value": "inactive"},
      {"measurement": "Activity", "setting": "[11]", "value": "inactive"},
      {"measurement": "pIC50", "setting": "[5]", "value": 6.62},
      {"measurement": "Activity", "setting": "[8]", "value": "Non-Toxic"},
      {"measurement": "Activity", "setting": "[9]", "value": "Non-Toxic"},
      {"measurement": "Activity", "setting": "[10]", "value": "Non-Toxic"}
    ]},
    {"smiles": "COC(=O)[C@@H](N)CCCNC(=N)N[N+](=O)[O-]", "values": [
      {"measurement": "Activity", "setting": "[12]", "value": "Active"}
    ]},
    {"smiles": "O=c1n(CCCCc2ccccc2Cl)c2ccccc2n1C1CCN(CCCCc2ccccc2)CC1", "values": [
      {"measurement": "inhibition", "setting": "[1]", "value": "Active"},
      {"measurement": "Activity", "setting": "[2]", "value": "inactive"}
    ]},
    {"smiles": "O=c1n(CCCCc2ccccc2)c2ccccc2n1C1CCN(CCCOc2ccccc2)CC1", "values": [
      {"measurement": "inhibition", "setting": "[1]", "value": "Active"},
      {"measurement": "Activity", "setting": "[2]", "value": "inactive"},
      {"measurement": "Activity", "setting": "[11]", "value": "inactive"}
    ]},
    {"smiles": "COc1ccccc1CCCCN1CCC(n2c(=O)n(CCCCc3ccccc3)c3ccccc32)CC1", "values": [
      {"measurement": "inhibition", "setting": "[1]", "value": "Active"},
      {"measurement": "Activity", "setting": "[2]", "value": "inactive"},
      {"measurement": "Activity", "setting": "[11]", "value": "inactive"}
    ]},
    {"smiles": "O=c1n(CCCCc2ccccc2)c2ccccc2n1C1CCN(CCCCc2ccccc2F)CC1", "values": [
      {"measurement": "inhibition", "setting": "[1]", "value": "Active"},
      {"measurement": "Activity", "setting": "[2]", "value": "inactive"}
    ]},
    {"smiles": "O=c1n(CCCCc2ccccc2)c2ccccc2n1C1CCN(CCCCc2cccc(F)c2)CC1", "values": [
      {"measurement": "inhibition", "setting": "[1]", "value": "Active"},
      {"measurement": "Activity", "setting": "[2]", "value": "inactive"},
      {"measurement": "pIC50", "setting": "[3]", "value": 6.82},
      {"measurement": "pIC50", "setting": "[5]", "value": 6.68}
    ]},
    {"smiles": "COc1ccccc1CCCCN1CCC(n2c(=O)n(CCCCc3ccccc3OC)c3ccccc32)CC1", "values": [
      {"measurement": "inhibition", "setting": "[1]", "value": "Active"},
      {"measurement": "Activity", "setting": "[2]", "value": "inactive"}
    ]},
    {"smiles": "COc1ccccc1CCCCn1c(=O)n(C2CCN(CCCCc3ccccc3)CC2)c2ccccc21", "values": [
      {"measurement": "inhibition", "setting": "[1]", "value": "Active"},
      {"measurement": "Activity", "setting": "[2]", "value": "inactive"}
    ]},
    {"smiles": "O=c1n(CCCCc2ccccc2)c2ccccc2n1C1CCN(CCCC(c2ccc(F)cc2)c2ccc(F)cc2)CC1", "values": [
      {"measurement": "inhibition", "setting": "[1]", "value": "inactive"},
      {"measurement": "Activity", "setting": "[2]", "value": "inactive"}
    ]},
    {"smiles": "O=c1[nH]c2ccccc2n1C1CCN(CCCC(c2ccc(F)cc2)c2ccc(F)cc2)CC1", "note": "[PIMOZIDE]", "values": [
      {"measurement": "pIC50", "setting": "[5]", "value": 6.51},
      {"measurement": "half-life", "setting": "[6]", "value": 2.47, "unit": "h"},
      {"measurement": "pIC50", "setting": "[13]", "value": 5.61},
      {"measurement": "Activity", "setting": "[7]; filed as antagonist", "value": "Active"},
      {"measurement": "Activity", "setting": "Mus musculus [14]", "value": "Active"},
      {"measurement": "Activity", "setting": "Mus musculus [15]", "value": "Active"},
      {"measurement": "Activity", "setting": "[8]", "value": "Toxic"},
      {"measurement": "Activity", "setting": "[16]", "value": "Toxic"},
      {"measurement": "Activity", "setting": "[17]", "value": "Toxic"}
    ]},
    {"smiles": "O=c1n(CCCCc2ccccc2)c2ccccc2n1C1CCN(CCCCc2ccccc2)CC1", "values": [
      {"measurement": "inhibition", "setting": "[1]", "value": "Active"},
      {"measurement": "Activity", "setting": "[2]", "value": "inactive"},
      {"measurement": "Activity", "setting": "[11]", "value": "inactive"},
      {"measurement": "pIC50", "setting": "[5]", "value": 6.68},
      {"measurement": "Activity", "setting": "[8]", "value": "Non-Toxic"},
      {"measurement": "Activity", "setting": "[9]", "value": "Non-Toxic"},
      {"measurement": "Activity", "setting": "[10]", "value": "Non-Toxic"}
    ]},
    {"smiles": "COc1ccc2c(c1)c(CC(=O)O)c(C)n2C(=O)c1ccc(Cl)cc1", "values": [
      {"measurement": "Activity", "setting": "[7]; filed as antagonist", "value": "Active"}
    ]}
  ]
}
